We go through 35 molecules from ChEMBL document CHEMBL3751765, “Efavirenz a nonnucleoside reverse transcriptase inhibitor of first-generation: Approaches based on its medicinal chemistry” (Eur J Med Chem, 2016).

Test system in the first series: not listed separately
Briefly: Tmax in human plasma after the first dose of drug. It counts as ADME, organism-based.
Conditions: not given
Turning to `O=C1Nc2ccc(Cl)cc2[C@@](C#CC2CC2)(C(F)(F)F)O1` [EFAVIRENZ], the Tmax – broadly, the time at which the peak concentration occurs – amounted to 5 h.

The target of the next series is Human immunodeficiency virus type 1 reverse transcriptase (Human immunodeficiency virus 1) (UniProt Q72547).
Conditions: not given
With `CCCCO[C@]1(C(F)(F)F)OC(=O)Nc2ccc(Cl)cc21`, it took 10.2 nM to reach the 90% level (IC90).

As to `CC(=O)Nc1ccc2c(c1)[C@@](C#CC1CC1)(C(F)(F)F)OC(=O)N2`, the 90% effect level (IC90) was put at 296 nM. Against the preceding molecule, the IC90 is about 29-fold higher. Regarding `O=C1Nc2ccc(Cl)cc2[C@@](C#Cc2ccco2)(C(F)(F)F)O1`, the IC90 – broadly, the concentration needed for an effect of 90% – was found to be 3.8 nM. The same measure, in the same setting: in the case of `O=C1Nc2ccc([N+](=O)[O-])cc2[C@@](C#CC2CC2)(C(F)(F)F)O1` it was 0.83 nM. `CC(C)=CCO[C@]1(C(F)(F)F)OC(=O)Nc2ccc(Cl)cc21` gave an IC90 of 2.68 nM. Compared with the last molecule, the IC90 is about 3.2-fold higher. The same measure, in the same setting: for `CC(C)C#C[C@]1(C(F)(F)F)NC(=O)Nc2ccc(Cl)cc21` the value was 3 nM; for `C=CCO[C@]1(C(F)(F)F)OC(=O)Nc2ccc(Cl)cc21`, 3.9 nM. Take `O=C1Nc2ccc(-c3ccccc3)cc2[C@@](C#CC2CC2)(C(F)(F)F)O1`: it took 279 nM to reach the 90% level (IC90). Turning to `CNc1ccc2c(c1)[C@@](C#CC1CC1)(C(F)(F)F)OC(=O)N2`, the IC90 stood at 9.02 nM.

Take `Cc1ccc2c(c1)C(O)(C#CC1CC1)C(=O)N2C` (stereo not drawn): it took 6 nM to reach the 90% level (IC90). Same read-out and setting: for `O=C1Nc2cccc(F)c2[C@@](C#CC2CC2)(C(F)(F)F)O1` the value was 4.35 nM; for `O=C1Nc2ccc(F)cc2[C@@](C#CC2CC2)(C(F)(F)F)O1`, 7.35 nM; for `CN1C(=O)C(O)(C#CC2CC2)c2ccccc21` (stereo not drawn), 40 nM. `CC(C)CCO[C@]1(C(F)(F)F)OC(=O)Nc2ccc(Cl)cc21` registered an IC90 of 10.1 nM.

On to `CC[C@H]1C(=O)Nc2ccc(F)cc2N1C(=O)OC(C)C` [OPAVIRALINE], for which the 90% effect level (IC90) was put at 4.8 nM. Same read-out and setting: for `O=C1Nc2ccc(Cl)cc2[C@@](C#Cc2ccccn2)(C(F)(F)F)O1` the value was 5.39 nM; for `O=C1Nc2ccc(OC(F)(F)F)cc2[C@@](C#CC2CC2)(C(F)(F)F)O1`, 18.9 nM; for `CCCO[C@@](C#CC1CC1)(c1cc(CC)c(C)[nH]c1=O)C(F)(F)F`, 32 nM. The same measure, in the same setting: for `CCO[C@]1(C(F)(F)F)OC(=O)Nc2ccc(Cl)cc21` the value was 18.3 nM.

`O=C1Nc2ccc(Cl)cc2[C@@](C#CC2CC2)(C(F)(F)F)N1` displayed an IC90 of 2.7 nM. Still for that read-out and setting: in the case of `O=C1Nc2ccccc2[C@@](C#CC2CC2)(C(F)(F)F)O1` it was 10.3 nM. On the same count and under the same terms, for `COc1ccc2c(c1)[C@@](C#CC1CC1)(C(F)(F)F)OC(=O)N2` the value was 2 nM; for `Nc1ccc2c(c1)[C@@](C#CC1CC1)(C(F)(F)F)OC(=O)N2`, 20.6 nM; for `CN(C)c1ccc2c(c1)[C@@](C#CC1CC1)(C(F)(F)F)OC(=O)N2`, 8.33 nM. The molecule `Cc1ccc2c(c1)[C@@](C#CC1CC1)(C(F)(F)F)OC(=O)N2` had a 90% effect concentration (IC90) of 7.11 nM.

The target of a further series is Human immunodeficiency virus type 1 reverse transcriptase (Human immunodeficiency virus 1, UniProt Q72547). Briefly: Inhibition of HIV1 reverse transcriptase.
Conditions: not given
For `CCOC(=O)[C@@H]1C[C@@]12C(=O)Nc1ccc(Cl)cc12`, the midpoint of inhibition, the IC50, lay at 59 nM. `CC(C)=CCN1C(C)C(=O)Nc2ccc(Cl)cc2S1(=O)=O` (stereo not drawn): the half-maximal inhibitory concentration (IC50) (as a rule, the concentration at which inhibition is half-maximal) was found to be 800 nM. The same measure, in the same setting: for `CC[C@H]1C(=O)Nc2ccc(F)cc2N1C(=O)OC(C)C` [OPAVIRALINE] the value was 45 nM; for `C#CC1(C2CC2)c2cc(Cl)ccc2NC(=O)N1C` (stereo not drawn), 6 nM. In turn, `C[C@@H]1O[C@](/C=C/C2CC2)(C(F)(F)F)c2cc(Cl)ccc2NC1=O` showed an IC50 of 46 nM. The same measure, in the same setting: in the case of `COc1ccc2c(c1)N(C(=O)OC(C)C)[C@@H](CSC)C(=O)N2` it was 2 nM; in that of `O=S1(c2ccccc2)=NC(=S)Nc2ccccc21` (stereo not drawn), 950 nM; in that of `C=CCC[C@]12C[C@@]1(C(=O)OCC)C(=O)Nc1ccc(Br)cc12`, 1 nM. The same measure, in the same setting: in the case of `CCOC1(c2ccccc2)c2cc(Cl)ccc2NC(=O)N1C` (stereo not drawn) it was 56 nM.

As for `CCCCC[C@]12C[C@@]1(C(=O)OCC)C(=O)Nc1ccc(Br)cc12`, it took 1 nM to reach half-maximal inhibition (IC50).

Test system in another series: not listed separately
Briefly: Half life in human administered as multiple doses. It counts as ADME, organism-based. As to conditions: in vivo.
With `O=C1Nc2ccc(Cl)cc2[C@@](C#CC2CC2)(C(F)(F)F)O1` [EFAVIRENZ], the half-life (usually how long it takes for the measured level to halve) was 40 h.

Test system in another series: not listed separately
The series is described as follows: Half life in human administered as single dose. It counts as ADME, organism-based. To be noted: in vivo.
Molecule `O=C1Nc2ccc(Cl)cc2[C@@](C#CC2CC2)(C(F)(F)F)O1` [EFAVIRENZ] gave a half-life of 52 h.
